In US20260078118A1, “COMBINED PRODUCT, SALT AND USE THEREOF” (SHANGHAI HENLIUS BIOTECH, INC., priority 2023, published 2026):
Counter-ions that a name gives are not always drawn.

Key:
[1] = system: HepG2 cells; test: Protection of hepatocytes from deoxycholic acid (DCA)-induced cell damage, CCK8 viability; type: cell-based; conditions: then 1 mM DCA 4 h; for cell viability: compound N 50 μM for 24 h, vs. DCA-treated group
Experimental: (§1) First, 2.5×10^4 HepG2 cells were seeded in a 96-well flat-bottom plate with an MEM medium containing 10% fetal bovine serum. The cells were cultured overnight in an incubator at 37° C. with 5% CO2 for adhesion. Subsequently, various compounds at corresponding concentrations (compound Y: 100 μM; compound B: 100 μM; compound N: 50 μM) were incubated with the HepG2 cells in the incubator at 37° C. with 5% CO2 for 24 h. All groups, except for the blank control group, were treated with 1 mM deoxycholic acid (DCA, a secondary bile acid that can directly induce hepatocyte damage) for 4 h. All groups were supplemented with 10 μL of CCK8 reagent and incubated under the incubator conditions for 1 h. The absorbance was measured at a wavelength of 450 nm using a microplate reader, which indirectly reflected the number of viable cells. All data were calculated and presented as percentages relative to the absorbance measured in the blank control group not treated with deoxycholic acid.
as §1, with “Y: 50” for “Y: 100 μM; compound B: 100”, “N: 50 µM; compound combination Y+N: 50 μM+50 μM (molar ratio: 1:1); YN salt:” for “N:”, “h. Then, the” for “h. The”
as §1, with “µM;” for “μM; compound B: 100 μM;”, “µM; compound combination Y+N: 100 μM+50 μM (molar ratio: 2:1))” for “μM)”
First, 2.5×10^4 HepG2 cells were seeded in a 96-well flat-bottom plate with an MEM medium containing 10% fetal bovine serum. The cells were cultured overnight in an incubator at 37° C. with 5% CO2 for adhesion. […] The absorbance was measured at a wavelength of 450 nm using a microplate reader, which indirectly reflected the number of viable cells. […]

[2] = system: mice subjected to intragastric administration of α-naphthylisothiocyanate (ANIT); test: ANIT mouse model, serological indicators; type: in vivo, C57BL/6 mice; conditions: vs. ANIT model group
Source text: In order to verify the technical effects observed in the in vitro cell models, this experiment further examined the effects of compound Y and compound B on serological indicators in a mouse model subjected to intragastric administration of α-naphthylisothiocyanate (ANIT). Fifty-four female C57BL/6 mice aged 6-8 weeks were purchased from Shanghai Lingchang Biotechnology Co., Ltd. After one week of acclimatization, the mice were divided into 6 groups according to body weight, and this time point was designated as day −3. The test compound in each group was intragastrically administered starting from day −3. After three consecutive days of administration, modeling was performed by intragastric administration of ANIT at a dose of 50 mg/kg, and this time point was designated as day 0. During modeling, the healthy group (control) received a single oral dose of pure olive oil. Throughout the entire experimental period, both the healthy group (control) and the model group (ANIT) were given corresponding doses of vehicle (sodium carboxymethylcellulose) according to body weight. The mice were observed daily for health status and body weight changes. The experimental endpoint was day 2; prior to euthanasia, the mice were fasted for 6 h, and cardiac blood collection and liver sample acquisition were performed under anesthesia. The primary indicators were serological changes including AST, ALT, and ALP.
In order to verify the technical effects observed in the DDC model, this experiment further examined the effects of various compound combinations on serological indicators in a mouse model subjected to intragastric administration of α-naphthylisothiocyanate (ANIT). Fifty-six female C57BL/6 mice aged 6-8 weeks were purchased from Shanghai Lingchang Biotechnology Co., Ltd. After one week of acclimatization, the mice were divided into 7 groups according to body weight, and this time point was designated as day −3. The compound in each group was intragastrically administered starting from day −3. After three consecutive days of administration, modeling was performed by intragastric administration of ANIT at a dose of 50 mg/kg, and this time point was designated as day 0. The normal control group received a single oral dose of pure olive oil. Throughout the entire experimental period, both the healthy group (control) and the model group (ANIT) were given corresponding doses of vehicle (sodium carboxymethylcellulose) according to body weight. The mice were observed daily for health status and body weight changes. The experimental endpoint was day 2; prior to euthanasia, the mice were fasted for 6 h, and cardiac blood collection and liver sample acquisition were performed under anesthesia. The primary indicators were serological changes including AST, ALT, and ALP.

[3] = system: mice fed with feed containing 0.1% DDC (DDC model); test: DDC model, serological indicators and liver pathology; type: in vivo, C57BL/6 mice; conditions: Example 12, FIG. 17; U 100 mg/kg, combinations 100+100 mg/kg; vs. DDC model group
Source text: Seventy-one male C57BL/6 mice aged 10 weeks were purchased from Shanghai Lingchang Biotechnology Co., Ltd. […] The compound in each group was intragastrically administered starting from day 0. Throughout the entire experimental period, both the healthy group (control) and the model group (DDC) were given corresponding doses of vehicle (sodium carboxymethylcellulose) according to body weight. The mice were observed daily for health status and body weight changes. The experimental endpoint was day 20. Prior to euthanasia, the mice were fasted for 6 h, and cardiac blood collection and liver sample acquisition were performed under anesthesia. The primary indicators were serological changes including AST, ALT, and ALP; pathological analysis was performed by HE staining. The specific grouping and the administration dose for each group are shown in the table below: Fifty-six male C57BL/6 mice aged 10 weeks were purchased from Shanghai Lingchang Biotechnology Co., Ltd. […] The compound in each group was intragastrically administered starting from day 0. Throughout the entire experimental period, both the healthy group (control) and the model group (DDC) were given corresponding doses of vehicle (sodium carboxymethylcellulose) according to body weight. The mice were observed daily for health status and body weight changes. The experimental endpoint was day 20. […]

[4] = system: CD4-positive T cells; test: Proliferation of CD4-positive T cells from Anti-CD3/CD28-stimulated PBMCs (CellTrace, flow cytometry); type: cell-based, human; conditions: FIG. 5; compound Y 200 μM, Y+N 200 μM+100 μM, 72 h; vs. DMSO control
Experimental: (§2) First, a certain amount of human peripheral blood mononuclear cells (PBMCs) were incubated with 5 μM CellTrace cell proliferation assay reagent in an incubator at 37° C. with 5% CO2 in the dark for 20 min. Then, 1.5×10^5 CellTrace-stained PBMCs were seeded in a 96-well U-bottom plate and treated with Anti-CD3/CD28 antibody-coupled magnetic beads at a ratio of 1:1 (cell count:magnetic bead count) to induce differentiation into T cells. Subsequently, various compounds at corresponding concentrations (compound Y: 200 µM; compound N: 100 µM; compound combination Y+N: 200 μM+100 μM; control group: UDCA (100 μM)) were co-incubated with the above-treated cells in the incubator at 37° C. with 5% CO2 for 72 h, followed by analysis by a flow cytometer. Specifically, the test cells were first treated with a Live/dead dye (633 nm, 1:1000 dilution) at 4° C. for 30 min to distinguish dead cells from live cells. Subsequently, the above test cells were simultaneously co-incubated with wavelength dyes anti-CD45-PerCPCy5.5, anti-CD4-AF700, and anti-CD8-FITC at room temperature for 30 min to distinguish different series of T cells (CD4-positive T cells and CD8-positive T cells). After appropriate washing, the above-stained cells were analyzed by a flow cytometer at different wavelengths. […] Proliferation of CD4-positive and CD8-positive T cells was determined by the fluorescence of CellTrace dye.

[5] = system: CD8-positive T cells; test: Proliferation of CD8-positive T cells from Anti-CD3/CD28-stimulated PBMCs (CellTrace, flow cytometry); type: cell-based, human; conditions: FIG. 6; compound Y 200 μM, Y+N 200 μM+100 μM, 72 h; vs. DMSO control
Experimental: as §2

[6] = Example 4, FIG. 1, compound Y 100 μM, compound B 100 μM
[7] = Example 9, FIG. 9, 100 and 50 mg/kg intragastric twice daily

`C[C@H](CC(=O)O)[C@H]1CC[C@H]2[C@@H]3[C@@H](O)C[C@@H]4C[C@H](O)CC[C@]4(C)[C@H]3CC[C@]12C` [Compound N, 24-Norursodeoxycholic acid] was tested, and the cell viability [1, 6] was “trend toward improved cell viability, but the trend was not significant” and the cell viability ([1]; Example 5, FIG. 2) was “trend toward improved cell viability, but the trend was not significant”.
With `C[C@H](CCC(=O)O)[C@H]1CC[C@H]2[C@@H]3[C@@H](O)C[C@@H]4C[C@H](O)CC[C@]4(C)[C@H]3CC[C@]12C` [U, Ursodeoxycholic acid] the “serum alkaline phosphatase (ALP) levels” value ([2]; Example 10, FIG. 10, U 100 mg/kg intragastric twice daily) was “reduced serum alkaline phosphatase (ALP) levels”, the “serum ALT levels” value ([2]; Example 10, FIG. 11, U 100 mg/kg, Y+N 100+50 mg/kg intragastric twice daily) was “significantly increased serum ALT levels” and the “serum AST levels” value ([2]; Example 10, FIG. 12, U 100 mg/kg, Y+N 100+50 mg/kg intragastric twice daily) was “significantly increased serum AST levels”. The “bile pigment-positive area of the liver” value [3] was “significant reduction in the bile pigment-positive area of the liver”.
With `COc1cc2cc3[n+](cc2cc1OC)CCc1cc2c(cc1-3)OCO2` [Compound Y] the cell viability [1, 6] was “highly significant increase in cell viability”, the “cell viability (percentage relative to blank control)” value ([1]; Example 5, FIG. 2, compound Y 50 μM, Y+N 50 μM+50 μM (1:1), YN salt 50 μM for 24 h) was 72% and the “proliferation of CD4-positive T cells” value [4] was “significantly inhibited”. The “proliferation of CD8-positive T cells” value [5] was “significantly inhibited”, the “serum alkaline phosphatase (ALP) levels” value ([2]; Example 9, FIG. 7, 50 mg/kg intragastric twice daily, day -3 to day 2) was “reduced serum ALP levels” and the “serum alkaline phosphatase (ALP) levels” value ([2]; Example 9, FIG. 7, 100 mg/kg intragastric twice daily, day -3 to day 2) was “significantly reduced serum alkaline phosphatase (ALP) levels”. The “serum ALT levels” value ([2]; Example 9, FIG. 8, 50 mg/kg intragastric twice daily) was “reduced serum ALT levels”, the “serum ALT levels” value ([2]; Example 9, FIG. 8, 100 mg/kg intragastric twice daily) was “significantly reduced serum ALT levels” and the “serum AST levels” value [2, 7] was “reduced serum AST levels in a dose-dependent manner”.
For `COc1ccc2cc3[n+](cc2c1OC)CCc1cc2c(cc1-3)OCO2` [Compound B, Berberine hydrochloride], the cell viability [1, 6] was “highly significant increase in cell viability”, the “serum alkaline phosphatase (ALP) levels” value ([2]; Example 9, FIG. 7, 100 and 50 mg/kg intragastric twice daily) was “increased serum ALP levels in a dose-dependent manner” and the “serum ALT levels” value ([2]; Example 9, FIG. 8, 100 and 50 mg/kg intragastric twice daily) was “increased serum ALT levels in a dose-dependent manner”. For the same molecule, the “serum AST levels” value [2, 7] was “increased serum AST levels in a dose-dependent manner”.
